Laboratory results as given in PubChem BioAssay AID1963842 (Molecular Pharmacology Branch, DTP, NCI, 2024).

Tested on: 677734-321-R-J1-PDC complex spheroid viability
Assay: Anticancer human tumor 677734-321-R-J1-PDC patient-derived soft tissue sarcoma cell line growth inhibition [POLQ]
Conditions: for IC50: curve of first compound; for viability, T/C: stronger effect = lower value
In short: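 Growth inhibition in 3D: complex spheroids (tumor PDC, HUVEC, MSC) treated with POLQ inhibitor combinations; where Cmax unknown, highest tested concentration 10 microM, except SN-38 at 1 microM.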

[1] = second compound 0.0316 µM, first compound 0.0316 µM
[2] = second compound 0.0316 µM, first compound 0.1 µM
[3] = second compound 0.0316 µM, first compound 0.316 µM
[4] = second compound 0.0316 µM, first compound 1 µM
[5] = second compound 0.0316 µM, first compound 3.16 µM
[6] = second compound 0.0316 µM, first compound 10 µM
[7] = second compound 0.1 µM, first compound 0.0316 µM
[8] = second compound 0.1 µM, first compound 0.1 µM
[9] = second compound 0.1 µM, first compound 0.316 µM
[10] = second compound 0.1 µM, first compound 1 µM
[11] = second compound 0.1 µM, first compound 3.16 µM
[12] = second compound 0.1 µM, first compound 10 µM
[13] = second compound 0.316 µM, first compound 0.0316 µM
[14] = second compound 0.316 µM, first compound 0.1 µM
[15] = second compound 0.316 µM, first compound 0.316 µM
[16] = second compound 0.316 µM, first compound 1 µM
[17] = second compound 0.316 µM, first compound 3.16 µM
[18] = second compound 0.316 µM, first compound 10 µM
[19] = second compound 1 µM, first compound 0.0316 µM
[20] = second compound 1 µM, first compound 0.1 µM
[21] = second compound 1 µM, first compound 0.316 µM
[22] = second compound 1 µM, first compound 1 µM
[23] = second compound 1 µM, first compound 3.16 µM
[24] = second compound 1 µM, first compound 10 µM
[25] = second compound 3.16 µM, first compound 0.0316 µM
[26] = second compound 3.16 µM, first compound 0.1 µM
[27] = second compound 3.16 µM, first compound 0.316 µM
[28] = second compound 3.16 µM, first compound 1 µM
[29] = second compound 3.16 µM, first compound 3.16 µM
[30] = second compound 3.16 µM, first compound 10 µM
[31] = second compound 10 µM, first compound 0.0316 µM
[32] = second compound 10 µM, first compound 0.1 µM
[33] = second compound 10 µM, first compound 0.316 µM
[34] = second compound 10 µM, first compound 1 µM
[35] = second compound 10 µM, first compound 3.16 µM
[36] = second compound 10 µM, first compound 10 µM
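Also: spheroids exposed to compounds for one week.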
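For viability, T/C in this document: 100% = vehicle DMSO treated spheroids.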

C#Cc1c(F)ccc2cc(O)cc(-c3ncc4c(N5CC6CCC(C5)N6)nc(OCC56CCCN5CC(F)C6)nc4c3F)c12 (stereo unspecified) + Cc1cccc(N(C)C(=O)C2C(O)CCN2c2nc(C)cc(C(F)(F)F)c2C#N)c1
IC50 (second compound 0.0316 µM): > 10 µM
IC50 (second compound 0.1 µM): > 10 µM
IC50 (second compound 0.316 µM): > 10 µM
IC50 (second compound 1 µM): > 10 µM
IC50 (second compound 3.16 µM): > 10 µM
IC50 (second compound 10 µM): > 10 µM
viability, T/C [1]: 110%
viability, T/C [2]: 101%
viability, T/C [3]: 108%
viability, T/C [4]: 103%
viability, T/C [5]: 101%
viability, T/C [6]: 102%
viability, T/C [7]: 111%
viability, T/C [8]: 106%
viability, T/C [9]: 105%
viability, T/C [10]: 100%
viability, T/C [11]: 106%
viability, T/C [12]: 107%
viability, T/C [13]: 118%
viability, T/C [14]: 97.5%
viability, T/C [15]: 100%
viability, T/C [16]: 100%
viability, T/C [17]: 110%
viability, T/C [18]: 104%
viability, T/C [19]: 105%
viability, T/C [20]: 97%
viability, T/C [21]: 109%
viability, T/C [22]: 100%
viability, T/C [23]: 107%
viability, T/C [24]: 102%
viability, T/C [25]: 98.1%
viability, T/C [26]: 102%
viability, T/C [27]: 103%
viability, T/C [28]: 109%
viability, T/C [29]: 101%
viability, T/C [30]: 107%
viability, T/C [31]: 99.9%
viability, T/C [32]: 104%
viability, T/C [33]: 107%
viability, T/C [34]: 99.2%
viability, T/C [35]: 103%
viability, T/C [36]: 98.8%

C=CC(=O)N1CCN(c2nc(=O)n(-c3c(C)ccnc3C(C)C)c3nc(-c4c(O)cccc4F)c(F)cc23)C(C)C1 (stereo unspecified) + Cc1cccc(N(C)C(=O)C2C(O)CCN2c2nc(C)cc(C(F)(F)F)c2C#N)c1
IC50 (second compound 0.0316 µM): > 10 µM
IC50 (second compound 0.1 µM): > 10 µM
IC50 (second compound 0.316 µM): > 10 µM
IC50 (second compound 1 µM): > 10 µM
IC50 (second compound 3.16 µM): > 10 µM
IC50 (second compound 10 µM): > 10 µM
viability, T/C [1]: 108%
viability, T/C [2]: 99.5%
viability, T/C [3]: 103%
viability, T/C [4]: 104%
viability, T/C [5]: 110%
viability, T/C [6]: 88%
viability, T/C [7]: 105%
viability, T/C [8]: 104%
viability, T/C [9]: 101%
viability, T/C [10]: 107%
viability, T/C [11]: 102%
viability, T/C [12]: 93.4%
viability, T/C [13]: 106%
viability, T/C [14]: 105%
viability, T/C [15]: 103%
viability, T/C [16]: 103%
viability, T/C [17]: 113%
viability, T/C [18]: 92%
viability, T/C [19]: 109%
viability, T/C [20]: 94.9%
viability, T/C [21]: 107%
viability, T/C [22]: 104%
viability, T/C [23]: 108%
viability, T/C [24]: 85.5%
viability, T/C [25]: 101%
viability, T/C [26]: 100%
viability, T/C [27]: 105%
viability, T/C [28]: 108%
viability, T/C [29]: 108%
viability, T/C [30]: 81.8%
viability, T/C [31]: 105%
viability, T/C [32]: 100%
viability, T/C [33]: 98.6%
viability, T/C [34]: 103%
viability, T/C [35]: 81.1%
viability, T/C [36]: 80.1%

CC1COCCN1c1cc(C2(O)CC3CCC(C2)O3)c2cnn(-c3ccn[nH]3)c2n1 (stereo unspecified) + Cc1cccc(N(C)C(=O)C2C(O)CCN2c2nc(C)cc(C(F)(F)F)c2C#N)c1
IC50 (second compound 0.0316 µM): 0.0962 µM
IC50 (second compound 0.1 µM): 0.122 µM
IC50 (second compound 0.316 µM): 0.0957 µM
IC50 (second compound 1 µM): 0.0991 µM
IC50 (second compound 3.16 µM): 0.0832 µM
IC50 (second compound 10 µM): 0.0803 µM
viability, T/C [1]: 76.5%
viability, T/C [2]: 49%
viability, T/C [3]: 26.5%
viability, T/C [4]: 19%
viability, T/C [5]: 17.3%
viability, T/C [6]: 17.8%
viability, T/C [7]: 87.8%
viability, T/C [8]: 54.8%
viability, T/C [9]: 27.2%
viability, T/C [10]: 22.5%
viability, T/C [11]: 22.2%
viability, T/C [12]: 16.9%
viability, T/C [13]: 83.6%
viability, T/C [14]: 48.9%
viability, T/C [15]: 28.1%
viability, T/C [16]: 21%
viability, T/C [17]: 18.3%
viability, T/C [18]: 15.2%
viability, T/C [19]: 94.2%
viability, T/C [20]: 49.6%
viability, T/C [21]: 26.1%
viability, T/C [22]: 18%
viability, T/C [23]: 17.4%
viability, T/C [24]: 16.4%
viability, T/C [25]: 85.5%
viability, T/C [26]: 43.4%
viability, T/C [27]: 25.1%
viability, T/C [28]: 18.4%
viability, T/C [29]: 28.6%
viability, T/C [30]: 14%
viability, T/C [31]: 85.6%
viability, T/C [32]: 41.3%
viability, T/C [33]: 24.2%
viability, T/C [34]: 21.8%
viability, T/C [35]: 16.9%
viability, T/C [36]: 15.7%
